According to article PMC7845594, “Novel Immune Modulators Enhance Caenorhabditis elegans Resistance to Multiple Pathogens” (mSphere, 2021):

Test system: C. elegans transcriptome
Experiment: Transcriptome profiling (Affymetrix microarrays), differentially expressed genes
Assay type: in vivo, Caenorhabditis elegans
Method: To gain additional insight into the effect of LK molecules on C. elegans, young-adult, wild-type worms were treated with each drug at 100 µM for 8 h in the absence of pathogen. RNA was collected, and transcriptome profiling was performed.
Data were determined using Affymetrix microarrays, as described in Materials and Methods. Download Table S3, XLSX file, 0.07 MB.
Transcriptome profiling was performed on ∼6,000 wild-type, young adult worms incubated with either LK molecules or DMSO for 8 h. RNA isolation was performed using TRIzol extraction, followed by cleanup using RNeasy columns according to the manufacturer’s protocol. Each condition was analyzed in triplicate. Microarray data have been deposited in the GEO database, accession number GSE137516. […] Clustering and generation of the heat map was performed using Cluster 3.0 ([98]) and Treeview ([99]), respectively. Fold change of genes were normalized to average fold change of that gene over all clustered conditions. Genes and conditions were clustered using Euclidean distance and average linkages. […] Microarray data for non-LK molecules were collected from GEO omnibus. WormEXP was used as a secondary method for confirming statistical significance of potential pathways stimulated by each of the LK molecules ([100]). Gene ontologies were generated using DAVID ([101], [102]).

[1] = Downregulated genes, Affy_ID 171867_x_at

## CNC(=O)Oc1c(Br)cc2sc(=O)oc2c1Br [LK34]
Affy_ID 171867_x_at, listed under genes C09B9.6, F36H12.7, K07F5.1, R05F9.13, R13H9.2, R13H9.4, T13F2.10, T13F2.11, Y59E9AR.1, Y59E9AR.7, ZK354.1, downregulated genes
  Fold Change: 0.2366
[1]
  Fold Change, gene ZK354.1: 0.2366
  Fold Change, gene ZK354.10: 0.2366
  Fold Change, gene ZK354.11: 0.2366
  Fold Change, gene ZK354.4: 0.2366
  Fold Change, gene ZK354.5: 0.2366
Downregulated genes, Affy_ID 172214_x_at
  Fold Change, gene ZK525.1: 0.3205
Downregulated genes, Affy_ID 172381_x_at
  Fold Change, gene ZK484.8: 0.3874
Downregulated genes, Affy_ID 172798_x_at
  Fold Change, gene ZK546.3: 0.1968
Downregulated genes, Affy_ID 172871_x_at
  Fold Change, gene ZK131.7: 0.3375
Downregulated genes, Affy_ID 172900_x_at
  Fold Change, gene ZK546.6: 0.1968
Downregulated genes, Affy_ID 179491_at
  Fold Change, gene ZK669.2: 0.229
Downregulated genes, Affy_ID 179513_at
  Fold Change, gene ZK550.2: 0.3085
Downregulated genes, Affy_ID 182193_at
  Fold Change, gene ZK484.5: 0.3399
Downregulated genes, Affy_ID 189095_at
  Fold Change, gene ZK593.1: 0.4248
Downregulated genes, Affy_ID 194066_s_at
  Fold Change, gene ZK666.7: 0.02705
Gene C05C12.3, Affy_ID 183355_s_at, downregulated genes
  Fold Change: 0.4055
Gene M163.1, Affy_ID 177298_at, downregulated genes
  Fold Change: 0.426
Gene R01E6.3, Affy_ID 189628_at, downregulated genes
  Fold Change: 0.3684
Gene R03E9.1, Affy_ID 193723_s_at, downregulated genes
  Fold Change: 0.2017
Gene R03E9.3, Affy_ID 174840_s_at, downregulated genes
  Fold Change: 0.4768
Gene R05F9.3, Affy_ID 172725_x_at, downregulated genes
  Fold Change: 0.4019
Gene R05F9.8, Affy_ID 172724_x_at, downregulated genes
  Fold Change: 0.2519
Gene R05G6.10, Affy_ID 192058_at, downregulated genes
  Fold Change: 0.3616
Gene R12C12.1, Affy_ID 190616_at, downregulated genes
  Fold Change: 0.2442
Gene R12E2.9, Affy_ID 180698_s_at, downregulated genes
  Fold Change: 0.3881
Gene R52.3, Affy_ID 177369_at, downregulated genes
  Fold Change: 0.4244
Gene T01C3.4, Affy_ID 188106_at, downregulated genes
  Fold Change: 0.02189
Gene T02B11.3, Affy_ID 174051_s_at, downregulated genes
  Fold Change: 0.4182
Upregulated gene T13H2.4, Affy_ID 183082_s_at
  Fold Change: 2.522
Upregulated gene T14F9.3, Affy_ID 173287_s_at
  Fold Change: 3.284
Upregulated gene T14G8.1, Affy_ID 193596_s_at
  Fold Change: 3.752
Upregulated gene T15B7.3, Affy_ID 188456_at
  Fold Change: 3.308
Upregulated gene T19B10.2, Affy_ID 181715_s_at
  Fold Change: 5.383
Upregulated gene T20F7.6, Affy_ID 173076_s_at
  Fold Change: 3.038
Upregulated gene T21C12.2, Affy_ID 193009_at
  Fold Change: 2.072
Upregulated gene T21E3.3, Affy_ID 173760_s_at
  Fold Change: 2.777
Upregulated gene T22B7.3, Affy_ID 181552_at
  Fold Change: 4.555
Upregulated gene T22B7.7, Affy_ID 173688_s_at
  Fold Change: 13.7199
Upregulated gene T22F3.3, Affy_ID 176676_s_at
  Fold Change: 2.752
Upregulated gene T24B8.3, Affy_ID 175022_s_at
  Fold Change: 3.173
Upregulated gene T24B8.5, Affy_ID 178297_at
  Fold Change: 134.612
Upregulated gene T24C4.4, Affy_ID 182815_at
  Fold Change: 2.661
Upregulated gene T25G12.5, Affy_ID 174581_s_at
  Fold Change: 2.002
Upregulated gene T26C5.1, Affy_ID 190852_at
  Fold Change: 2.137
Upregulated gene T27A3.2, Affy_ID 192961_at
  Fold Change: 2.203
Upregulated gene T27E4.3, Affy_ID 172901_x_at
  Fold Change: 16.0293
Upregulated gene T28D9.3, Affy_ID 187493_at
  Fold Change: 2.783
Upregulated gene VZK822L.1, Affy_ID 187997_s_at
  Fold Change: 2.806
Upregulated gene W01F3.2, Affy_ID 173274_s_at
  Fold Change: 7.505
Upregulated gene W02A2.7, Affy_ID 193943_at
  Fold Change: 2.753
Upregulated gene W03C9.7, Affy_ID 194039_s_at
  Fold Change: 2.373
Upregulated gene W03F8.10, Affy_ID 174843_at
  Fold Change: 5.242
Upregulated gene W03F9.4, Affy_ID 189587_s_at
  Fold Change: 16.8516
Upregulated gene W04A8.4, Affy_ID 178654_s_at
  Fold Change: 22.7121
Upregulated gene W04B5.1, Affy_ID 180966_s_at
  Fold Change: 3.157
Upregulated gene W04B5.3, Affy_ID 173153_s_at
  Fold Change: 2.678
Upregulated gene W05G11.6, Affy_ID 192581_s_at
  Fold Change: 4.517
Upregulated gene W05H9.1, Affy_ID 179806_at
  Fold Change: 2.462
Upregulated gene W06D4.1, Affy_ID 172046_x_at
  Fold Change: 3.704
Upregulated gene W06D12.3, Affy_ID 192357_at
  Fold Change: 7.111
Upregulated gene W06H8.1, Affy_ID 185746_s_at
  Fold Change: 2.211
Upregulated gene W09C3.1, Affy_ID 192187_s_at
  Fold Change: 2.464
Upregulated gene W09D10.2, Affy_ID 188190_at
  Fold Change: 2.479
Upregulated gene Y17G7B.5, Affy_ID 191321_s_at
  Fold Change: 2.063
Upregulated gene Y19D10A.9, Affy_ID 180592_s_at
  Fold Change: 3.023
Upregulated gene Y22F5A.4, Affy_ID 182989_at
  Fold Change: 2.493
Upregulated gene Y22F5A.5, Affy_ID 183028_s_at
  Fold Change: 6.999
Upregulated gene Y25C1A.13, Affy_ID 192131_s_at
  Fold Change: 2.041
Upregulated gene Y37A1B.5, Affy_ID 182849_at
  Fold Change: 3.394
Upregulated gene Y37D8A.3, Affy_ID 182387_at
  Fold Change: 3.237
Upregulated gene Y37D8A.6, Affy_ID 181665_at
  Fold Change: 3.132
Upregulated gene Y37E3.16, Affy_ID 173045_at
  Fold Change: 3.373
Upregulated gene Y38E10A.14, Affy_ID 175449_s_at
  Fold Change: 19.1307
Upregulated gene Y38F1A.9, Affy_ID 183759_at
  Fold Change: 3.202
Upregulated gene Y39G10AR.10, Affy_ID 176486_at
  Fold Change: 3.752
Upregulated gene Y40B10A.6, Affy_ID 176851_at
  Fold Change: 72.4303
Upregulated gene Y41C4A.16, Affy_ID 194230_x_at
  Fold Change: 2.854
Upregulated gene Y41D4B.10, Affy_ID 176055_at
  Fold Change: 12.5937
Upregulated gene Y41D4B.16, Affy_ID 176044_at
  Fold Change: 3.687
Upregulated gene Y42G9A.3, Affy_ID 184843_at
  Fold Change: 2.448
Upregulated gene Y45F3A.3, Affy_ID 190484_at
  Fold Change: 2.142
Upregulated gene Y45F10C.4, Affy_ID 186062_at
  Fold Change: 3.365
Upregulated gene Y45G12C.2, Affy_ID 187084_at
  Fold Change: 44.4121
Upregulated gene Y47D3B.10, Affy_ID 175803_at
  Fold Change: 16.792
Upregulated gene Y47H9C.5, Affy_ID 191065_s_at
  Fold Change: 3.655
Upregulated gene Y51H7C.1, Affy_ID 186349_at
  Fold Change: 10.7753
Upregulated gene Y53C10A.5, Affy_ID 185387_s_at
  Fold Change: 2.3
Upregulated gene Y53F4B.33, Affy_ID 191337_at
  Fold Change: 3.746
Upregulated gene Y53G8B.2, Affy_ID 184714_s_at
  Fold Change: 12.3167
Upregulated gene Y55B1AR.1, Affy_ID 187047_at
  Fold Change: 6.102
Upregulated gene Y57A10A.23, Affy_ID 187073_at
  Fold Change: 4.099
Upregulated gene Y57G7A.1, Affy_ID 184451_at
  Fold Change: 2.494
Upregulated gene Y66D12A.24, Affy_ID 175124_at
  Fold Change: 2.157
Upregulated gene Y73F4A.1, Affy_ID 183741_s_at
  Fold Change: 2.361
Upregulated gene Y77E11A.2, Affy_ID 187013_at
  Fold Change: 2.74
Upregulated gene Y105C5B.15, Affy_ID 186799_at
  Fold Change: 3.153
Upregulated gene Y105C5B.9, Affy_ID 185162_at
  Fold Change: 4.733
Upregulated gene Y106G6D.6, Affy_ID 185498_at
  Fold Change: 6.605
Upregulated gene Y110A2AL.4, Affy_ID 175367_s_at
  Fold Change: 14.9078
Upregulated gene ZC64.2, Affy_ID 177670_at
  Fold Change: 2.001
Upregulated gene ZC155.1, Affy_ID 173222_s_at
  Fold Change: 2.272
Upregulated gene ZC455.4, Affy_ID 191057_s_at
  Fold Change: 5.011
Upregulated gene ZK6.10, Affy_ID 175170_s_at
  Fold Change: 5.465
Upregulated gene ZK455.1, Affy_ID 193891_at
  Fold Change: 2.692
Upregulated gene ZK512.7, Affy_ID 186714_s_at
  Fold Change: 3.907
Upregulated gene ZK550.6, Affy_ID 186811_s_at
  Fold Change: 2.631
Upregulated gene ZK637.13, Affy_ID 173475_s_at
  Fold Change: 3.509
Upregulated gene ZK688.6, Affy_ID 176040_s_at
  Fold Change: 2.439
Upregulated gene ZK770.3, Affy_ID 180366_s_at
  Fold Change: 3.016
Upregulated gene ZK829.9, Affy_ID 189819_s_at
  Fold Change: 5.03
Upregulated gene ZK899.2, Affy_ID 178376_s_at
  Fold Change: 4.028
Upregulated gene ZK1058.6, Affy_ID 188607_at
  Fold Change: 45.3463
Upregulated gene ZK1251.2, Affy_ID 188538_at
  Fold Change: 5.974
Upregulated gene ZK1290.8, Affy_ID 184676_s_at
  Fold Change: 4.32
